# Results: patent US6596703B1, “Promotion of wound healing utilizing steroids having reduced deteriorous systemic side effects typical of glucocorticoids, mineralocorticoids and sex steroids” (Jagotec AG, priority 1997, dated 2003)
# Entries after “also recorded” stand apart in the source; their conditions may differ. Read-outs that look alike come from different tables or passages of the source.
# How the values were obtained:
# [1] = test system: murine chronic granulomatous air pouch; assay: Inflammatory-induced angiogenesis in the murine chronic granulomatous air pouch, topical application in 2.5% hyaluronan; type: in vivo, mice; conditions: for effect on angiogenesis: topical application (1 mg/kg) in 2.5% hyaluronan; for Vascular Index: 0.1 ml 2.5% hyaluronan alone topically daily day 0 to day 6
# Method: (§1) Chronic granulomatous air pouches were raised in mice by known methods (the reader is referred to PCT/CA94/00207 at page 16 for an experimental method in this regard) utilizing 0.5 ml Freund's Complete adjuvant with 0.1% croton oil injected into 1 day old air pouches. Animals were dosed with saline/0.01% DMSO either subcutaneously (s.c.) into the nape of the neck, or with saline applied topically in 0.1 ml 2.5% hyaluronan. Vascular casts incorporating carmine in gelatin were formed at termination, the tissues weighed dry (mg), papain digested, and the carmine content (μg) determined by spectrophotometric assay. Vascularity was calculated as the Vascularity Index (μg/mg). Results are expressed as means±s.e.m.
# (§2) Investigation of the action of topical tetrahydrocortisol, tetrahydrocortisone, tetrahydrocortexolone and the like on inflammatory-induced angiogenesis in the murine chronic granulomatous air pouch was pursued. Groups of mice (n=8-13) were depilated and the inflammation induced 4 days later. Tetrahydrocortisol (TH-F) and tetrahydrocortisone (TH-E) were applied topically (1 mg/kg) in 2.5% hyaluronan (0.1 ml) daily from the day of induction (day 0) to termination (day 6). Controls were dosed with 0.1 ml 2.5% hyaluronan alone.
# as §2, with “tetrahydrocortisone and” for “tetrahydrocortisone,”, “was” for “and tetrahydrocortisone (TH-E) were”, “with” for “(1 mg/kg) in”, “ml of composition 0.1-1.0 mg of tetrahydrocortisol/kg) by weight” for “ml)”
# [2] = test system: murine chronic granulomatous air pouch; assay: Inflammation-induced angiogenesis in the murine chronic granulomatous air pouch, s.c. dosing from induction (day 0) to day 6; type: in vivo, mice; conditions: for Vascular Index: mean ± s.e.m.; for angiostatic action: administered alone s.c. 1 mg/kg, no heparin, prophylactic dosing (Tables 1, 2)
# Method: as §1
# Investigation of the action of tetrahydrocortisol, tetrahydrocortisone and tetrahydrocortexolone and the like on inflammation-induced angiogenesis in the murine chronic granulomatous air pouch was pursued. Groups of mice (n=8-13) were dosed with tetrahydrocortisol, tetrahydrocortisone or tetrahydrocortexolone or the like (0.1-3.0 mg/kg in 0.1 ml saline/0.01% DMSO, s.c) daily from induction (day 0) to termination on day 6. Controls were dosed with 0.1 ml saline/0.01% DMSO subcutaneously.
# Investigation of the action of angiostatic and anti-inflammatory steroids on inflammation-induced angiogenesis in the murine chronic granulomatous air pouch was pursued. Groups of mice (n=8-13) were treated with the steroids at 1.0 mg/kg (0.1 ml saline/0.01% DMSO, s.c), except of dexamethasone at (0.2 mg/kg), daily from the day of induction (day 0) to termination on day 6. Controls were given 0.1 ml saline/0.01% DMSO s.c. (Key: Tetrahydrocortisol (TH-F), Tetrahydrocortisone (TH-E).
# [3] = test system: murine chronic granulomatous air pouch; conditions: s.c. at 1 mg/kg; reference (1); cited from earlier work
# [4] = test system: established 7-day old vasculature of the murine chronic granulomatous air pouch; assay: Established 7-day old vasculature of the murine chronic granulomatous air pouch, s.c. dosing from day 7 to day 14 or 21; type: in vivo, mice; conditions: for Vascular Index: Table 3
# Method: as §1
# Investigation of the action of tetrahydrocortisol, tetrahydrocortisone and tetrahydrocortexolone and the like on the established 7-day old vasculature of the murine chronic granulomatous air pouch was pursued. Groups of mice were dosed with tetrahydrocortisol, tetrahydrocortisone or tetrahydrocortexolone or the like (0.1-3.0 mg/kg in 0.1 ml saline/0.01% DMSO, s.c) daily from day 7 to termination at day 14 or day 21. Controls were dosed with 0.1 ml saline (0.01% DMSO alone).
# [5] = Table 1, 1 mg/kg s.c. daily day 0 to day 6
# [6] = Table 2, 1.0 mg/kg s.c. daily day 0 to day 6
compound,measurement,setting,value
"C[C@]12CCC(=O)C=C1CC[C@@H]1[C@@H]2C(=O)C[C@@]2(C)[C@H]1CC[C@]2(O)C(=O)CO [Cortisone, cortisone]",effect on angiogenesis,[1],angiostatic
same,Vascular Index,[2]; [5],8.23 ± 0.62 µg/mg
same,angiostatic action,[2],inactive
"C[C@]12CCC(O)CC1CC[C@@H]1[C@@H]2C(O)C[C@@]2(C)[C@H]1CC[C@]2(O)C(=O)CO (some centres unmarked) [TH-F, 5-pregnane-3,11,17,21-tetrol-20-one]",effect on angiogenesis,[1]; listed as tetrahydrocortisol,significant acceleration of angiogenesis; also recorded: Definite angiogenesis action
same,dose relation of acceleration of angiogenesis,"[1]; topical in 2.5% hyaluronan, 0.1-1.0 mg/kg (Table 5)",dose related
same,Vascular Index,[2]; [5],5.29 ± 0.61 µg/mg
same,Vascular Index,[2]; [6],13.088 ± 1.630 µg/mg
same,angiostatic action,[2],decrease in vascularity
same,effect on angiogenesis,[3],capable of inhibiting angiogenesis
heparin,Vascular Index,"[2]; Table 1, 1000 U p.o.",7.93 ± 0.83 µg/mg
hyaluronan [HA],Vascular Index,[1]; Table 4,11.180 ± 1.980 µg/mg
same,Vascular Index,[1]; Table 5,11.180 ± 1.98 µg/mg
"C[C@]12CCC(O)C[C@H]1CC[C@@H]1[C@@H]2C(=O)C[C@@]2(C)[C@H]1CC[C@]2(O)C(=O)CO (some centres unmarked) [TH-E, 5-pregnane-3,17,21-triol-11,20-dione]",effect on angiogenesis,[1]; listed as tetrahydrocortisone,significant acceleration of angiogenesis; also recorded: Definite angiogenesis action
same,Vascular Index,"[4]; 0.1 mg/kg s.c. daily from day 7, termination Day 14",18.18 ± 1.97 µg/mg
same,Vascular Index,"[4]; 0.1 mg/kg s.c. daily from day 7, termination Day 21",18.59 ± 1.84 µg/mg
same,Vascular Index,"[4]; 0.3 mg/kg s.c. daily from day 7, termination Day 14",20.38 ± 1.91 µg/mg
same,Vascular Index,"[4]; 0.3 mg/kg s.c. daily from day 7, termination Day 21",31.33 ± 2.91 µg/mg
same,Vascular Index,"[4]; 1.0 mg/kg s.c. daily from day 7, termination Day 14",22.49 ± 3.77 µg/mg
same,Vascular Index,"[4]; 1.0 mg/kg s.c. daily from day 7, termination Day 21",25.75 ± 2.40 µg/mg
same,Vascular Index,"[4]; 3.0 mg/kg s.c. daily from day 7, termination Day 14",18.87 ± 1.29 µg/mg
same,Vascular Index,"[4]; 3.0 mg/kg s.c. daily from day 7, termination Day 21",25.91 ± 1.85 µg/mg
same,angiostatic action,"[4]; s.c., no heparin, therapeutic dosing (Table 3)",without effect
same,Vascular Index,[2]; [6],18.860 ± 1.830 µg/mg
same,angiostatic action,[2],without effect
same,effect on angiogenesis,[3],capable of inhibiting angiogenesis
"C[C@]12CC[C@@H](O)C[C@H]1CC[C@@H]1[C@@H]2CC[C@@]2(C)[C@H]1CC[C@]2(O)C(=O)CO [TH-S, tetrahydrocortexolone]",effect on angiogenesis,[3],capable of inhibiting angiogenesis
